The values that follow are results of earlier work, collected in patent publication US20250221938A1, “PHARMACEUTICAL COMPOSITION, METHODS FOR TREATING AND USES THEREOF” (Boehringer Ingelheim International GmbH, priority 2015, published 2025).

Counter-ions that a name gives are not always drawn.

The conditions of this data set: metformin on its own, in the diabetic.

With `CN(C)C(=N)N=C(N)N` [metformin, metformin hydrochloride], the “average improvement in the HbA1c value” is 1.0-1.5%.
